From ChEMBL document CHEMBL1201862, “PubChem BioAssay data set” (2004)
Calls of active or inactive are those of the source.

What was measured:
Type in all cases: functional
[1] = molecular target: High affinity nerve growth factor receptor (Homo sapiens, UniProt P04629);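 note: NTRK1 tested as one member of a kinome-wide profiling panel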
[2] = molecular target: Leukocyte tyrosine kinase receptor (Homo sapiens, UniProt P29376); experiment: Navigating the Kinome. Panel member name: LTK
[3] = molecular target: Tyrosine-protein kinase receptor TYRO3 (Homo sapiens, UniProt Q06418);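 note: TYRO3 value obtained as one member of a kinome-wide profiling panel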
[4] = molecular target: BDNF/NT-3 growth factors receptor (Homo sapiens, UniProt Q16620);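 note: NTRK2 measured as one member of a broad kinome-wide kinase profiling panel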
[5] = molecular target: Dual specificity protein kinase CLK4 (Homo sapiens, UniProt Q9HAZ1)
[6] = molecular target: Aurora kinase A (Homo sapiens, UniProt O14965);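 note: value from the Navigating the Kinome kinase panel profiling, panel entry STK6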
[7] = molecular target: Serine/threonine-protein kinase Chk1 (Homo sapiens, UniProt O14757);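 note: measured as one member of a kinome-wide kinase profiling panel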
[8] = molecular target: Serine/threonine-protein kinase TAO1 (Homo sapiens, UniProt Q7L7X3)
[9] = molecular target: Dual specificity tyrosine-phosphorylation-regulated kinase 1A (Homo sapiens, UniProt Q13627);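 note: measured against DYRK1A as one member of a broad kinome profiling panel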
[10] = molecular target: Casein kinase I isoform alpha (Homo sapiens, UniProt P48729)
[11] = molecular target: cAMP-dependent protein kinase catalytic subunit alpha (Homo sapiens, UniProt P17612)
[12] = molecular target: Inhibitor of nuclear factor kappa-B kinase subunit epsilon (Homo sapiens, UniProt Q14164); experiment: Navigating the Kinome. Panel member name: IKBKE
[13] = molecular target: LIM domain kinase 1 (Homo sapiens, UniProt P53667); experiment: Navigating the Kinome. Panel member name: LIMK1
[14] = molecular target: Protein kinase C theta type (Homo sapiens, UniProt Q04759); experiment: Navigating the Kinome. Panel member name: PRKCQ
[15] = molecular target: Dual specificity tyrosine-phosphorylation-regulated kinase 1B (Homo sapiens, UniProt Q9Y463); experiment: Navigating the Kinome. Panel member name: DYRK1B
[16] = molecular target: Glycogen synthase kinase-3 alpha (Homo sapiens, UniProt P49840);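 note: GSK3A result taken from a broad kinome-wide kinase panel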
[17] = molecular target: Vascular endothelial growth factor receptor 2 (Homo sapiens, UniProt P35968)
[18] = molecular target: Cyclin-dependent kinase 9 (Homo sapiens, UniProt P50750);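 note: value from the CDK9 entry of a kinome-spanning kinase panel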
[19] = molecular target: Macrophage colony-stimulating factor 1 receptor (Homo sapiens, UniProt P07333);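 note: value comes from the Navigating the Kinome screening panel, CSF1R member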
[20] = molecular target: Death-associated protein kinase 3 (Homo sapiens, UniProt O43293);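 note: measured as one member of a kinome-wide profiling panel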
[21] = molecular target: Platelet-derived growth factor receptor beta (Homo sapiens, UniProt P09619);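 note: value comes from a kinome panel, with PDGFRB tested as one panel member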
Platelet-derived growth factor receptor beta, sequence (P09619 whole entry): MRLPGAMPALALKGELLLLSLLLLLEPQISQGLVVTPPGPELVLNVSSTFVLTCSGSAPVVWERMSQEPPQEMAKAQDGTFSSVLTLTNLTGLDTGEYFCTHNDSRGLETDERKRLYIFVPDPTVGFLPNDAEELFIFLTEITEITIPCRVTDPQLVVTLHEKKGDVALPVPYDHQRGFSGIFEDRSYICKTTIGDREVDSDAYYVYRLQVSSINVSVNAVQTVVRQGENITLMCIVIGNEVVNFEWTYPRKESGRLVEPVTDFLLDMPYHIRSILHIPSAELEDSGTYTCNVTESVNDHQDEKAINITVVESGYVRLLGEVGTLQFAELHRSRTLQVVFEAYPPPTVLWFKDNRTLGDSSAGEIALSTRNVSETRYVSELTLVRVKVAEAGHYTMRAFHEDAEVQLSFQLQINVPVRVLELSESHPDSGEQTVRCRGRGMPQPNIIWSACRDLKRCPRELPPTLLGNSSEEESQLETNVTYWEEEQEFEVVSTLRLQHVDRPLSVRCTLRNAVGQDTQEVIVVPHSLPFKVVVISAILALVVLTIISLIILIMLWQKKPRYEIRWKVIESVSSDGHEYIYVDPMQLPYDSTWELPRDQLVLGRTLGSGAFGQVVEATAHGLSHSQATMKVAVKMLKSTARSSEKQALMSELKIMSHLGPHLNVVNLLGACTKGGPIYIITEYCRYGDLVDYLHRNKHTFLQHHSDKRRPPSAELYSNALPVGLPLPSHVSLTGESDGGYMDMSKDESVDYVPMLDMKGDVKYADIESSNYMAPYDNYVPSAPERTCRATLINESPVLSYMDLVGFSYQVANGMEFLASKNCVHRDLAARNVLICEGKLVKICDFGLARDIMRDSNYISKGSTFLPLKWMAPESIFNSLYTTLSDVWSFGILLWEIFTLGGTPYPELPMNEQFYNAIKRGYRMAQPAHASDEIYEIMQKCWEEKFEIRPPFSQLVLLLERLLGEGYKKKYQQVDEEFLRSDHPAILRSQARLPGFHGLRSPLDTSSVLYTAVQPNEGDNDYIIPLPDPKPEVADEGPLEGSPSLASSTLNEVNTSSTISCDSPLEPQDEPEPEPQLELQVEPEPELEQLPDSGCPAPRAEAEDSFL

Dual specificity protein kinase CLK4, sequence (Q9HAZ1 whole entry): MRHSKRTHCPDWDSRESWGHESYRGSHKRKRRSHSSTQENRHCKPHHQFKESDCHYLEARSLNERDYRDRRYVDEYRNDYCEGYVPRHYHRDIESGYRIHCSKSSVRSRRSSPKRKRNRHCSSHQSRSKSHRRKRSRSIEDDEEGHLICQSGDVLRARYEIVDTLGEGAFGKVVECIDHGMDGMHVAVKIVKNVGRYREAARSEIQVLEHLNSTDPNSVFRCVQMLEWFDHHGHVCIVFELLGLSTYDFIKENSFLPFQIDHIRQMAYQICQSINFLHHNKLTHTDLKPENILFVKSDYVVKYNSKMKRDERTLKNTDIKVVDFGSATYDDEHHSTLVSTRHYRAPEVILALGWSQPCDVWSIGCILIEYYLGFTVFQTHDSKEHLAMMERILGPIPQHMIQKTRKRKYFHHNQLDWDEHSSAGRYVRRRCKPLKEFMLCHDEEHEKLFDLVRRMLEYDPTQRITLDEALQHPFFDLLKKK
Aurora kinase A, sequence (O14965 whole entry): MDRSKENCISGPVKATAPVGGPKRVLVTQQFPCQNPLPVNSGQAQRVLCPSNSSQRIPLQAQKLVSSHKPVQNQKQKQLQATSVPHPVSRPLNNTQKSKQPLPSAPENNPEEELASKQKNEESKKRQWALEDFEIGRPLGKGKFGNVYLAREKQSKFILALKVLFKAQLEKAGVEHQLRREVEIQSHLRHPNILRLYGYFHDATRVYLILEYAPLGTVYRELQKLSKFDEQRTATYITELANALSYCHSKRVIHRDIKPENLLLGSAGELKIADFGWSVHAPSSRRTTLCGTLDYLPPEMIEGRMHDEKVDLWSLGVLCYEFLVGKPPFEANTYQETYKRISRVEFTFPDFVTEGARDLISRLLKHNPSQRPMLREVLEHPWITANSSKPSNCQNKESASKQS
Serine/threonine-protein kinase TAO1, sequence (Q7L7X3 whole entry): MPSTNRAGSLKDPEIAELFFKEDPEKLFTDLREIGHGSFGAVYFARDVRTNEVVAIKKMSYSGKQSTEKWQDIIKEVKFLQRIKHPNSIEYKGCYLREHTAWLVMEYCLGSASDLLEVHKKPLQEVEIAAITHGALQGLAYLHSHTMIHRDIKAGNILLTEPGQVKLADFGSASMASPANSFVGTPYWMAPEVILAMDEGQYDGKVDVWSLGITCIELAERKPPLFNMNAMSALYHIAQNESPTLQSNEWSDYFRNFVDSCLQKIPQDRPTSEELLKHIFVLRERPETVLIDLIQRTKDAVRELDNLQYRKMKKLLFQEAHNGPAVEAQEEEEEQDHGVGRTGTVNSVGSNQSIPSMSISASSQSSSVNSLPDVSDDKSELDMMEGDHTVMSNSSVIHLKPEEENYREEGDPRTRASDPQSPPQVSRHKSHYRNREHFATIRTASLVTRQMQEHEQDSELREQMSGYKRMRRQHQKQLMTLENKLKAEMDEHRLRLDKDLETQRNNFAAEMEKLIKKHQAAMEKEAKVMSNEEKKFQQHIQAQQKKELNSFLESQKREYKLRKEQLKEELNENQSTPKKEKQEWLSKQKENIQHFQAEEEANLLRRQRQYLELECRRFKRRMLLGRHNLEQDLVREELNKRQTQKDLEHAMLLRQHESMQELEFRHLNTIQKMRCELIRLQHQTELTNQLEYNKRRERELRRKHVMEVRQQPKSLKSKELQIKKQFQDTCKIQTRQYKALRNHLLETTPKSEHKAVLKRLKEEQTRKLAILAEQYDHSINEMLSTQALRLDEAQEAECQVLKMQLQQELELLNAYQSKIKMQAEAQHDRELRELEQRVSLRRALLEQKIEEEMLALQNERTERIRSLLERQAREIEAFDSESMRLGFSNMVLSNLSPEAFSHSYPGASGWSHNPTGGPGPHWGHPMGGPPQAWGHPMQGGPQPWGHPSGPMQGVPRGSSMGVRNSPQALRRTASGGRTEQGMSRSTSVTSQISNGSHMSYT
Casein kinase I isoform alpha, sequence (P48729 whole entry, canonical isoform): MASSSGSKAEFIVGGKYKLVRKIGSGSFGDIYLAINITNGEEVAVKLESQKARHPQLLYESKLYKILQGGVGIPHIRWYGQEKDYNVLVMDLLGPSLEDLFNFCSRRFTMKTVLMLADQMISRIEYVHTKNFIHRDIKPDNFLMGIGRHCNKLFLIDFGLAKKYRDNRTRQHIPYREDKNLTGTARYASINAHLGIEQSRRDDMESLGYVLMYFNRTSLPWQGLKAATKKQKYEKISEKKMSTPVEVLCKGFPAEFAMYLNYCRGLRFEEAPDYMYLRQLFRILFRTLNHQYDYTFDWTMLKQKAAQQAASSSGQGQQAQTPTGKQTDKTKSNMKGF
Death-associated protein kinase 3, sequence (O43293 whole entry): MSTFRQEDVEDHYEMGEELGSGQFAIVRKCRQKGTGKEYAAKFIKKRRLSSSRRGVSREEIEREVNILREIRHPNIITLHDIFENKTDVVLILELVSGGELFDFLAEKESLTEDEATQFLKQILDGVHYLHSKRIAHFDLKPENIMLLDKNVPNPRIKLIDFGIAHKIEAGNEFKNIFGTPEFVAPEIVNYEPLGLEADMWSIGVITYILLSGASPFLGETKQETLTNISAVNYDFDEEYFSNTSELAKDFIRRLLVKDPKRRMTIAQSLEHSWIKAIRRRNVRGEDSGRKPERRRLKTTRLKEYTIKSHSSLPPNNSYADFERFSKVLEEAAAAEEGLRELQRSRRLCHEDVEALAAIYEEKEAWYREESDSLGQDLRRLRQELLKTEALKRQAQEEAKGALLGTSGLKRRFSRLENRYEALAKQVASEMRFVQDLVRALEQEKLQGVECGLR
Glycogen synthase kinase-3 alpha, sequence (P49840 whole entry): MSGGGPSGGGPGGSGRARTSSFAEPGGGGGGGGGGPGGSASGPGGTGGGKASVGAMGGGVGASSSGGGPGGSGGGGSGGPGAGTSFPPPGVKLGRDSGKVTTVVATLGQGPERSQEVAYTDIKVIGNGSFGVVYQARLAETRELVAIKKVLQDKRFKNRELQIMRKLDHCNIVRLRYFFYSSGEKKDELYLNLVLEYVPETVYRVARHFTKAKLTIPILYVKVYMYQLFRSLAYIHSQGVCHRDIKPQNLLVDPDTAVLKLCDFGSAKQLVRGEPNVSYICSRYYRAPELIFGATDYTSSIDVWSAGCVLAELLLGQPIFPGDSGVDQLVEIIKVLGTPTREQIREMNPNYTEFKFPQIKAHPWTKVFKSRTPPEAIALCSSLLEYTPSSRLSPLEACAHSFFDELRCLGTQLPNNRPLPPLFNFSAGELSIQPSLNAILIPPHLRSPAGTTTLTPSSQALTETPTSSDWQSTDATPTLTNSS
Cyclin-dependent kinase 9, sequence (P50750 whole entry): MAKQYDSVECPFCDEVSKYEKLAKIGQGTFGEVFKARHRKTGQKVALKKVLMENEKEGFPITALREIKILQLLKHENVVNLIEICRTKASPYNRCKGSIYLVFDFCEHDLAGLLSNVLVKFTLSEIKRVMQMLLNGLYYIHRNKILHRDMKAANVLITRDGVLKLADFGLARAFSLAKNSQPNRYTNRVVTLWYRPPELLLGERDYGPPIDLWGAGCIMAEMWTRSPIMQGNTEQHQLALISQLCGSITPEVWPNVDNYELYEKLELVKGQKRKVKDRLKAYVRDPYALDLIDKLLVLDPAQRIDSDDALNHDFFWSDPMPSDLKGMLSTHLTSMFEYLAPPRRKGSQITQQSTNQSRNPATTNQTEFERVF

Cn1c(N)nc2sccc21
Ki [1]: 50.1 µM (active)
Ki [2]: 79.4 µM (active)
Ki [3]: 79.4 µM (active)
Ki [4]: 63.1 µM (active)
Ki [5]: 20 µM (active)

CC(=O)n1ncc2cc(N)ccc21
Ki [6]: 63.1 µM (active)
Ki [7]: 2 µM (active)
Ki [8]: 6.31 µM (active)
Ki [9]: > 79.4 µM (inactive)
Ki [10]: 20 µM (active)
Ki [11]: > 50.1 µM (inactive)
Ki [12]: 79.4 µM (active)
Ki [13]: 3.16 µM (active)
Ki [14]: > 100 µM (inactive)
Ki [15]: 631 nM (active)
Ki [16]: 25.1 µM (active)
Ki [17]: > 100 µM (inactive)
Ki [18]: > 63.1 µM (inactive)
Ki [5]: 0.2 µM (active)
Ki [19]: > 100 µM (inactive)
Ki [20]: 5.01 µM (active)
Ki [21]: > 79.4 µM (inactive)
